Data taken from ChEMBL document CHEMBL2034957, “Synthesis and antitumor evaluation of novel benzo[d]pyrrolo[2,1-b]thiazole derivatives” (Eur J Med Chem, 2012).
Activity calls are given as the source filed them. The rule behind the calls is not given here.

What was measured:
HCT-116 = assay: Cytotoxicity against human HCT116 cells after 72 hrs by SRB assay; assay type: functional, cell-based; settings: HCT-116, 72 h
MX1 [1] = assay: Antitumor activity against human MX1 cells xenografted in athymic nude mouse assessed as tumor remission at 20 mg/kg, iv administered q2d for 3 days followed by 25 mg/kg, iv q2d for 5 days measured on day 26 post-tumor implantation; assay type: functional, organism-based
CCRF-CEM [2] = assay: Ratio of IC50 for human vinblastine-resistant CCRF-CEM cells to IC50 for human CCRF-CEM cells; assay type: functional
[3] = Cytotoxicity against human H1299 cells after 72 hrs by alamar blue assay; assay type: functional, cell-based; settings: NCI-H1299, 72 h
CCRF-CEM [4] = assay: Ratio of IC50 for human taxol-resistant CCRF-CEM cells to IC50 for human CCRF-CEM cells; assay type: functional
[5] = Cell cycle arrest in human H1299 cells at 18 uM after 48 hrs by propidium iodidee-based flow cytometry; assay type: functional; settings: NCI-H1299
CCRF-CEM [6] = assay: Cytotoxicity against human CCRF-CEM cells after 72 hrs by XTT assay; assay type: functional, cell-based
CCRF-CEM [7] = assay: Cytotoxicity against human vinblastine-resistant CCRF-CEM cells after 72 hrs by XTT assay; assay type: functional, cell-based
[8] = Cell cycle arrest in human H1299 cells assessed as G2/M phase cells at 4.5 to 9 uM after 24 hrs by propidium iodidee-based flow cytometry; assay type: functional; settings: NCI-H1299
MX1 [9] = assay: Cytotoxicity against human MX1 cells after 72 hrs by SRB assay; assay type: functional, cell-based; settings: MX1, 72 h
[10] = Cytotoxicity against human U87 cells after 72 hrs by alamar blue assay; assay type: functional, cell-based, U-87MG ATCC; settings: U-87 MG
[11] = Cell cycle arrest in human H1299 cells assessed as increase in sub-G1 phase cells at 4.5 to 9 uM after 24 hrs by propidium iodidee-based flow cytometry; assay type: functional; settings: NCI-H1299
MX1 [12] = assay: Antitumor activity against human MX1 cells xenografted in athymic nude mouse assessed as tumor remission at 20 mg/kg, iv administered q2d for 3 days followed by 25 mg/kg, iv q2d for 4 days measured on day 28 post-tumor implantation; assay type: functional, organism-based
CCRF-CEM [13] = assay: Cytotoxicity against human taxol-resistant CCRF-CEM cells after 72 hrs by XTT assay; assay type: functional, cell-based
PC-3 = assay: Cytotoxicity against human PC3 cells after 72 hrs by alamar blue assay; assay type: functional, cell-based; settings: PC-3, 72 h
[14] = Cytotoxicity against human OECM1 cells after 72 hrs by alamar blue assay; assay type: functional, cell-based; settings: OECM1, 72 h
[15] = Cell cycle arrest in human H1299 cells at 18 uM after 24 hrs by propidium iodidee-based flow cytometry; assay type: functional; settings: NCI-H1299
Nucleic Acid = assay: Induction of Escherichia coli pEGFP-N1 DNA interstrand cross-linking at 1 to 20 uM after 2 hrs using ethidium bromide staining by alkaline agarose gel shift assay; assay type: nucleic-acid assay
[16] = Cell cycle arrest in human H1299 cells assessed as reduction in G2/M phase cells at 4.5 to 9 uM after 48 hrs by propidium iodidee-based flow cytometry; assay type: functional; settings: NCI-H1299
[17] = Toxicity in iv dosed athymic nude mouse assessed as mortality; assay type: organism-based; settings: in vivo
Mus musculus [18] = assay: Toxicity in athymic nude mouse assessed as weight loss at 20 mg/kg, iv administered q2d for 3 days followed by 25 mg/kg, iv q2d for 5 days; assay type: organism-based; settings: in vivo
MX1 [19] = assay: Antitumor activity against human MX1 cells xenografted in athymic nude mouse assessed as tumor remission at 20 mg/kg, iv administered q2d for 3 days followed by 25 mg/kg, iv q2d for 4 days measured on day 26 post-tumor implantation; assay type: functional, organism-based
Mus musculus [20] = assay: Toxicity in athymic nude mouse assessed as weight loss at 30 mg/kg, iv administered q2d for 4 days; assay type: organism-based; set-up: dose 30 mg/kg, route intravenous; settings: in vivo, 96 h
MX1 [21] = assay: Antitumor activity against human MX1 cells xenografted in athymic nude mouse assessed as tumor suppression at 30 mg/kg, iv administered q2d for 4 days; assay type: functional
Mus musculus [22] = assay: Toxicity in athymic nude mouse assessed as weight loss at 10 mg/kg, iv administered q2d for 4 days; assay type: organism-based; set-up: dose 10 mg/kg, route intravenous; settings: in vivo, 96 h
[23] = Cell cycle arrest in human H1299 cells assessed as accumulation of G2/M phase cells after 24 to 48 hrs by propidium iodidee-based flow cytometry; assay type: functional; settings: NCI-H1299
Mus musculus [24] = assay: Toxicity in athymic nude mouse assessed as weight loss at 20 mg/kg, iv administered q2d for 3 days followed by 25 mg/kg, iv q2d for 4 days; assay type: organism-based; settings: in vivo
[25] = Cell cycle arrest in human H1299 cells assessed as accumulation of sub-G1 phase cells after 24 to 48 hrs by propidium iodidee-based flow cytometry; assay type: functional; settings: NCI-H1299
[26] = Cell cycle arrest in human H1299 cells assessed as reduction in G1 phase cells after 24 to 48 hrs by propidium iodidee-based flow cytometry; assay type: functional; settings: NCI-H1299
MX1 [27] = assay: Antitumor activity against human MX1 cells xenografted in athymic nude mouse assessed as tumor suppression at 10 mg/kg, iv administered q2d for 4 days; assay type: functional

Row | Compound | IC50 (HCT-116) [nM] | Ratio IC50 (CCRF-CEM [2]) | IC50 [3] [nM] | Ratio IC50 (CCRF-CEM [4]) | IC50 (CCRF-CEM [6]) [nM] | IC50 (CCRF-CEM [7]) [nM] | IC50 (MX1 [9]) [nM] | IC50 [10] [nM] | IC50 (CCRF-CEM [13]) [nM] | IC50 (PC-3) [nM] | IC50 [14] [nM] | Activity (Nucleic Acid) | Activity (Mus musculus [20]) [%] | Activity (Mus musculus [22]) [%] | Activity (Mus musculus [24]) [%] | also measured
1 | CC(C)NC(=O)OCc1c(COC(=O)NC(C)C)c2sc3ccccc3n2c1-c1ccc(Cl)cc1 | 1700 | 5.25 | 8750 | 4.87 | 80 | 420 | 1190 | 29000 | 390 | 13700 | 7540 | Active | – | – | – | Activity (MX1 [1]): Active; Activity [5]: inactive; Activity [8]: Active; Activity [11]: Active; Activity (MX1 [12]): Active; Activity [15]: Active; Activity [16]: Active; MTD [17]: 20 mg/kg; Activity (Mus musculus [18]): 10%; Activity (MX1 [19]): Active
2 | CCNC(=O)OCc1c(COC(=O)NCC)c2sc3ccccc3n2c1-c1ccc(Cl)cc1 | 700 | 1.85 | 4330 | 1.52 | 210 | 390 | 910 | 26000 | 320 | 13800 | 11600 | Active | 20 | 20 | 20 | Activity (MX1 [21]): >99%; Activity [23]: Active; Activity [25]: Active; Activity [26]: Dose-dependent effect
3 | CCNC(=O)OCc1c(COC(=O)NCC)c2sc3ccccc3n2c1-c1ccc(F)cc1 | 520 | 6.42 | 13600 | 5.42 | 70 | 450 | 480 | 29200 | 380 | 23700 | 11500 | Active | 20 | 20 | 20 | Activity (MX1 [27]): >99%
